Test results from patent US11795460B2, “Compositions and methods for TTR gene editing and treating ATTR amyloidosis” (Intellia Therapeutics, Inc., priority 2017, dated 2023).

Tests used:
TTR [1] = experiment: TTR editing in HepG2 cells transfected with Spy Cas9 mRNA and dgRNAs (Table 6); format: cell-based, human; details: HepG2 cells co-transfected with Spy Cas9 mRNA (SEQ ID NO:2) and dgRNAs
Procedure, shortened: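 Percent editing is the share of sequencing reads at the TTR target locus that carry insertions, deletions or substitutions, measured by Illumina amplicon sequencing aligned to hg38. Samples came from HepG2 cells lipofected first with 100 ng Cas9 mRNA and then with dual-guide RNA (25 nM crRNA/tracer), collected 24–72 h later.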

TTR [2] = experiment: TTR editing in primary human hepatocytes transfected with Spy Cas9 protein (RNP) loaded with dgRNAs (Table 8); format: cell-based; details: dgRNA transfected with Spy Cas9 protein (RNP)
Procedure, shortened: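 Primary human hepatocytes were lipofected (RNAiMAX) with RNP of Spy Cas9 (10 nM) plus pre-annealed crRNA (10 nM) and trRNA (10 nM) and harvested 24, 48 or 72 h later. Target-site amplicons were sequenced on Illumina MiSeq and aligned to hg38; percent editing = reads with indels or substitutions over total reads.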

off-target genomic sites = experiment: Off-target oligo insertion based assay in HEK293_Cas9 cells, dgRNAs and sgRNAs (Tables 23, 24); format: cell-based, human; details: Table 23; TTR dgRNAs in HekCas9 cells, oligo insertion based assay
Procedure, shortened: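 In HEK293 cells constitutively expressing Spy Cas9, crRNA (15 nM) plus trRNA (15 nM), or modified sgRNAs, were lipofected with donor oligo (10 nM). Genomic DNA was collected at 24 h, and oligo-insertion libraries were sequenced on MiSeq/HiSeq to map potential off-target cleavage sites.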

| Sequence | Avg % Deletion (TTR [1]) | Avg % Edit (TTR [1]) | Avg % Insert (TTR [1]) | Avg % Deletion (TTR [2]) | Avg % Edit (TTR [2]) | Avg % Insert (TTR [2]) | # Sites (off-target integration sites detected) (off-target genomic sites) |
| --- | --- | --- | --- | --- | --- | --- | --- |
| CUUCUCUACACCCAGGGCAC (tested as dual guide RNA, chemistry not given here) [CR003342] | 0.28% | 11.06% | 10.78% | 0.81% | 20.66% | 19.85% | 0 |
| GCGGCAAUGGUGUAGCGGCG (tested as dual guide RNA, chemistry not given here) [CR003377] | 1.02% | 16.30% | 15.29% | 0.31% | 12.77% | 12.45% | 0 |
| AAAUAGACACCAAAUCUUAC (tested as dual guide RNA, chemistry not given here) [CR003366] | 8.49% | 54.69% | 46.20% | 4.79% | 42.74% | 37.95% | 1 |
| AGUCCCUCAUUCCUUGGGAU (tested as dual guide RNA, chemistry not given here) [CR003392] | 0.33% | 14.64% | 14.32% | 0.14% | 10.07% | 9.93% | 0 |
| CAUUGAUGGCAGGACUGCCU (tested as dual guide RNA, chemistry not given here) [CR003347] | 1.49% | 22.57% | 21.08% | 0.24% | 66.35% | 66.11% | 1 |
| CCCCUACUCCUAUUCCACCA (tested as dual guide RNA, chemistry not given here) [CR003385] | 7.62% | 53.94% | 46.32% | 3.00% | 41.15% | 38.15% | 3 |
| GAAAGGCUGCUGAUGACACC (tested as dual guide RNA, chemistry not given here) [CR003352] | 4.77% | 44.28% | 39.51% | 3.21% | 30.48% | 27.27% | 2 |
| AUAGGAGUAGGGGCUCAGCA (tested as dual guide RNA, chemistry not given here) [CR003383] | 0.16% | 6.35% | 6.19% | 0.24% | 4.76% | 4.52% | 1 |
| UGAAUCCAAGUGUCCUCUGA (tested as dual guide RNA, chemistry not given here) [CR005303] | 1.08% | 21.63% | 20.55% | 0.39% | 36.45% | 36.06% | 1 |
| CAGAGGACACUUGGAUUCAC (tested as dual guide RNA, chemistry not given here) [CR003343] | 5.36% | 45.41% | 40.05% | 1.63% | 43.25% | 41.61% | 2 |
